This note sets out measurements from US20120220594A1, “METHODS FOR TREATING CANCER IN PATIENTS HAVING IGF-1R INHIBITOR RESISTANCE” (Bristol-Meyers Squibb Company, priority 2009, published 2012).

For one assay, the system named is Rh41 xenograft tumors. Briefly: In vivo xenograft tumor growth inhibition, Rh41. As to conditions: Rh41 xenograft tumors in nude mice.
In another assay the test system is Geo cells. Nature of the assay: 3H-thymidine incorporation cell proliferation assay in Geo cells. It counts as cell-based. For orientation: Uptake of a labelled nucleoside into DNA is a usual measure of proliferation.
In the next assay the test system is MCF-7-807R cells. Briefly: 3H-thymidine incorporation cell proliferation assay in MCF-7-807R cells.
In assay [1] the test system is Rh41-807R xenograft tumors. Briefly: In vivo xenograft tumor growth inhibition, Rh41-807R. As to conditions: Rh41-807R xenograft tumors in nude mice.
Description: (§3) Tumor volume was measured to assess tumor growth inhibition.
Another assay concerns Rh41-MAB391R cells. Nature of the assay: 3H-thymidine incorporation cell proliferation assay in MAB391-resistant Rh41-MAB391R cells. It counts as cell-based, human. The text has this: Human rhabdomyosarcoma cell line Rh41 was provided by Dr. Lee Helman and grown in RPMI medium plus GLUTAMAX® supplemented with 10% fetal bovine serum (FBS), 10 mmol/L HEPES, penicillin, and streptomycin. To develop acquired resistant cells to either BMS-754807, or mAB391 (R&D Systems, Inc., Minneapolis, Minn.), the sensitive Rh41 cells were exposed to the corresponding drug at the IC50 concentration and then at gradually increasing concentrations every other culture passage. The IC50 value to the compound was measured periodically during this treatment time until the resistance level reached a plateau.
(§1) Human rhabdomyosarcoma cell line Rh41 was chosen in this study to develop acquired resistance because it expresses IGF-1R (Huang et al., Cancer Res., 69(1):161-170 (Jan. 1, 2009)), the target of BMS-754807 and MAB391; and is sensitive to both drugs (Carboni et al., Proceedings of the 100th Annual Meeting of the American Association for Cancer Research, 2009 Apr. 18-22; Denver, Colo., Abstract No. 1742). The acquired-resistant Rh41-807R and Rh41-MAB391R cell lines were developed using a stepwise exposure to increasing concentrations of either IGF-1R/IR inhibitor BMS-754807 or IGF-1R antibody MAB391 for extended periods of time until a resistance plateau was reach. […];

The next assay has as its system SW403-807R cells. Briefly: 3H-thymidine incorporation cell proliferation assay in SW403-807R cells. It counts as cell-based.
Assay [2] relates to Rh41 cells with PDGFR-α knockdown. Nature of the assay: Proliferation assay in Rh41 cells transfected with PDGFR-α specific siRNA. As to conditions: Rh41 sensitive parental cells.
Description: (§4) RISC-free siRNA was transfected as the negative control (Dharmacon). Following the addition of the drugs, cells were incubated at 37° C. for 72 hours before cell growth was measured by incorporation of ^3H-thymidine as described for in vitro cellular proliferation assays.
The next assay has as its system GEO-807R cells. Briefly: 3H-thymidine incorporation cell proliferation assay in GEO-807R cells. The class given is cell-based.
The subject of assay [3] is Rh41-807R cells with PDGFR-α knockdown. Briefly: Proliferation assay in Rh41-807R cells transfected with PDGFR-α specific siRNA. As to conditions: Rh41-807R cells treated with PDGFR-α siRNA.
Description: as §4
The test system of another assay is SW403 cells. Nature of the assay: 3H-thymidine incorporation cell proliferation assay in SW403 cells. The class given is cell-based. The note with it: Homo sapiens, SW-403.
Assay [4] has as its system Rh41-807R cells. Briefly: 3H-thymidine incorporation cell proliferation assay in BMS-754807-resistant Rh41-807R cells. The note with it: for IC50: Homo sapiens. The class given is cell-based, human. From the text:
(§2) Human rhabdomyosarcoma cell line Rh41 was provided by Dr. Lee Helman and grown in RPMI medium plus GLUTAMAX® supplemented with 10% fetal bovine serum (FBS), 10 mmol/L HEPES, penicillin, and streptomycin.

A further assay deals with PDGFRα RNA in Rh41 cells. Briefly: Induction of PDGFRα expression in sensitive parental Rh41 cells (qRT-PCR). The class given is cell-based, human. As to the method:
FIGS. 3A-F show expression pattern comparisons of selected genes/proteins that uniquely changed expression only in 807R or in MAB391R. […] Insert: PDGFR-α protein expression pattern as detected by western blot. […] Cells starved for 24 hr, then stimulated with or without 50 ng/ml PDGF ligand fro 5 min. Cells were lyzed and 30 ug of total protein was used for western blot analyses. […] Insert: AXL protein expression as detected by western blot. […] Cells treated with 10 nM and 50 nM of BMS-754807 for 1, 2, 4, 8 and 24 hrs. PDGFRα RNA levels were measured by qRT-PCR and compared to the untreated time 0 control.
Comparing genes expression profiles, the inventors found there were some key signaling pathways that were differentially expressed in Rh41-807R and Rh41-MAB391R cells. An interesting example was PDGFR-α, which had >89 fold increase in RNA expression in Rh41-807R cells but not in Rh41-MAB391R compared to the parental; and the induction of PDGFR-α was persistent even in cells out of BMS-754807 selection for 3 months (FIG. 3A). The expression pattern was also confirmed at protein levels (FIG. 3A); PDGFR-α was also constitutively activated in Rh41-807R cells (FIG. 3B). […] Other genes such as c-KIT, FGFR2 and EPHA3 had similar expression pattern as PDGFR-α (FIG. 3C). Several Eph receptor family members such as EPHA3, EPHA4 and EPHB2 as well as ligand EFNA3 were overexpressed in 807R.
Background: Real-time PCR tracks product formation cycle by cycle.

The subject of a further assay is Rh1 cells. Nature of the assay: 3H-thymidine incorporation cell proliferation assay in Rh1 cells. As to conditions: Homo sapiens, RH-1. The class given is cell-based.
Another assay concerns Rh41 cells. Nature of the assay: 3H-thymidine incorporation cell proliferation assay in parental Rh41 cells. The class given is cell-based, human. As to conditions: Homo sapiens.
From the text: as §2

The next assay has as its system Rh41-807Rout cells. Briefly: Cell proliferation assay in Rh41-807Rout cells (out of drug selection for 3 months). As to conditions: out of drug selection for 3 months of passages. It counts as cell-based, human.
From the text: as §1

The test system of a further assay is Rh1-807R cells. Nature of the assay: 3H-thymidine incorporation cell proliferation assay in Rh1-807R cells. It counts as cell-based.
Assay [5] deals with Rh41-807R cells. The note with it: 1:1 ratio, Combination Index less than 1 indicates synergy. From the text:
A dilution of ratios drug combination method was used in cellular proliferation assays to test the IC50 values of single agent (A or B) as well as in combination (a or b). […] Combination Index=(a/A+b/B).

Setting [6] is: read-out: IGF-1R inhibitor Compound (IC50).

Like-named read-outs stand apart in the source and are kept apart here.

Description for GEO-807R cells: (§5) Cells were plated at an optimized density in 96-well plates, incubated overnight at 37° C., and then exposed to a serial dilution of the drugs. After 72 hours incubation, cells were pulsed with 4 μCi/ml [^3H]-thymidine (Amersham Pharmacia Biotech, UK) for 3 hours, trypsinized, harvested onto […] ®-96 GF/B plates (PerkinElmer, Boston, Mass.); scintillation was measured on a TOPCOUNTO NXT (Packard, Conn.). […] The mean IC50 and standard deviation from multiple tests for each cell line were calculated.
Description for Geo cells: as §5
Description for MCF-7-807R cells: as §5
Description for Rh1 cells: as §5
Description for Rh1-807R cells: as §5
Description for Rh41 xenograft tumors: as §3
Description for SW403 cells: as §5
Description for SW403-807R cells: as §5

By IC50 is commonly meant the point on the concentration scale where inhibition reaches its midpoint. For `C[C@@]1(C(=O)Nc2ccc(F)nc2)CCCN1c1nc(Nc2cc(C3CC3)[nH]n2)c2cccn2n1` [BMS-754807, (2S)-1-(4-((5-cyclopropyl-1H-pyrazol-3-yl)amino)pyrrolo[2,1-f][1,2,4]triazin-2-yl)-N-(6-fluoro-3-pyridinyl)-2-methyl-2-pyrrolidinecarboxamide], the “tumor growth inhibition (TGI)” value in the assay on Rh41 xenograft tumors came to 73%; in [1] it was 35%. Besides, the IC50 in the assay on Geo cells (Geo cells, Table 9, read-out: IGF-1R inhibitor Compound (IC50)) worked out at 350 nM; with Geo cells (Geo parental cells, Table 8, read-out: Parental IC50), 350 nM; in the assay on MCF-7-807R cells (Homo sapiens, MCF7), 735 nM; in the assay with MCF-7-807R cells (setting [6]), 972 ± 400 nM; in the assay with Rh41-MAB391R cells (Homo sapiens, read-out: IC50 (nM) Rh41-MAB391R) it was 27 nM; with SW403-807R cells (Homo sapiens, SW-403, BMS-754807-resistant SW403 cells, maintenance conc. 500, Table 8, read-out: IC50), 979 nM. Also, the IC50 in the assay with SW403-807R cells (SW403-807R cells, Table 9, read-out: IGF-1R inhibitor Compound (IC50)) worked out at 979 ± 528 nM; in the assay with GEO-807R cells (BMS-754807-resistant Geo cells, maintenance conc. 2000, Table 8, read-out: IC50) it was 1230 nM; in the assay on GEO-807R cells (GEO-807R cells, Table 9, read-out: IGF-1R inhibitor Compound (IC50)), 1230 ± 251 nM; with SW403 cells (SW403 cells, Table 9, read-out: IGF-1R inhibitor Compound (IC50)) it was 220 nM; in the assay with SW403 cells (SW403 parental cells, Table 8, read-out: Parental IC50), 220 nM; in the assay with Rh41-807R cells [4] (Rh41) it was 811 nM. Moreover, the IC50 is 811 nM in the assay on Rh41-807R cells [4] (read-out: IC50 (nM) Rh41-807R); 811 nM in the assay with Rh41-807R cells [4] (setting [6]); 27 nM in the assay on Rh1 cells (Rh1 cells, Table 9, read-out: IGF-1R inhibitor Compound (IC50)); 27 nM with Rh1 cells (Rh1 parental cells, Table 8, read-out: Parental IC50); 5 nM in the assay on Rh41 cells (Rh41, read-out: IC50 (nM) Rh41); 5 nM in the assay on Rh41 cells (Rh41, read-out: IGF-1R inhibitor Compound (IC50)). The half-inhibitory concentration (IC50) worked out at 5 nM with Rh41 cells (Rh41, read-out: Parental IC50 (nM)); 1800 nM in the assay with Rh1-807R cells (Homo sapiens, RH-1, BMS-754807-resistant Rh1 cells, maintenance conc. 120, Table 8, read-out: IC50); 1800 ± 1390 nM in the assay on Rh1-807R cells (Rh1-807R cells, Table 9, read-out: IGF-1R inhibitor Compound (IC50)). Besides, the Relative resistance is 46X with MCF-7-807R cells (fold change in IC50, resistant vs parental MCF-7 cells); 4.5X with SW403-807R cells (fold change in IC50, resistant vs parental SW403 cells); 3.5X in the assay on GEO-807R cells (fold change in IC50, resistant vs parental Geo cells); 162X in the assay with Rh41-807R cells [4] (fold change in IC50, resistant vs parental Rh41 cells); 66.5X in the assay on Rh1-807R cells (fold change in IC50, resistant vs parental Rh1 cells). The “activity in the Rh41-MAB391R model” value in the assay with Rh41-MAB391R cells (growth inhibited to a comparable level as the parental cells) was “relatively active”. Moreover, in assay [2], the “sensitivity between untransfected, control siRNA and PDGFR-α-specific siRNA transfected cells” value is “no significant differences in the sensitivity”. Besides, the “response to growth inhibition after PDGFR-α siRNA” value in assay [3] was “sensitive to growth inhibition”. Further, the “time at which induction of PDGFRα RNA was seen after treatment” value with PDGFRα RNA in Rh41 cells (Rh41 cells) was 4 h. In addition, the “induction of PDGFR-α expression” value with PDGFRα RNA in Rh41 cells (Rh41 sensitive parental cells, 10 nM and 50 nM) is listed as “dose-dependent”. In addition, in the assay on Rh41-807Rout cells, the “resistance of Rh41-807Rout” value is recorded as “significant level of resistance”.
Take `Cc1ccc(NC(=O)c2ccc(CN3CCN(C)CC3)cc2)cc1Nc1nccc(-c2cccnc2)n1` [imatinib]: in the assay on Rh41-807R cells [5], the “activity in growth inhibition in combination with BMS-754807” value is given as “synergistic activity”.
